Source: patent publication US7074789B2, “Kinase inhibitors” (Amgen Inc., priority 1999, dated 2006)

Key:
Format in all cases: biochemical
[1] = molecular target: T1, Hck-1 (Homo sapiens, UniProt P08631); test: Kinase inhibition assay (33P transfer), Hck; conditions: Table 6, Hck-1 kinase inhibition class
T1 construct: Kinases are expressed as either kinase domains or full length constructs; made in house

[2] = molecular target: T2, ErbB2 (Homo sapiens, UniProt P04626); test: Kinase inhibition assay (33P transfer), ErbB2; conditions: read-out: ErbB2-2
T2 construct: Kinases are expressed as either kinase domains or full length constructs; made in house
Procedure, shortened: (§1)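 Steps: coat wells with poly(Glu,Tyr) 4:1 or poly(Arg,Ser) 3:1; add purified kinase, [33P]ATP and inhibitor; incubate; wash with 0.5% phosphoric acid; add liquid scintillant; count. IC50 corresponds to half-maximal reduction of bound 33P.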

[3] = molecular target: T3, Ret-1 (Homo sapiens, UniProt P07949); test: Kinase inhibition assay (33P transfer), Ret; conditions: Table 6, Ret-1 kinase inhibition class
T3 construct: Kinases are expressed as either kinase domains or full length constructs; made in house

[4] = molecular target: T4, Lck (Homo sapiens, UniProt P06239); test: Kinase inhibition assay (33P transfer), Lck; conditions: read-out: Lck-1
T4 construct: Kinases are expressed as either kinase domains or full length constructs; made in house
Procedure, shortened: (§2)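 33P-ATP transfer to coated synthetic polymer substrates; acid wash (0.5% H3PO4), scintillant, liquid scintillation count. Enzymes: His- or GST-fusion kinases from E. coli or High Five insect cells.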

[5] = molecular target: T5, c-Met (Homo sapiens, UniProt P08581); test: Kinase inhibition assay (33P transfer), c-Met; conditions: Table 2, kinase inhibition class; read-out: Met-1
T5 construct: Kinases are expressed as either kinase domains or full length constructs; made in house
Procedure, shortened: as §1

[6] = molecular target: T6, Itk (Homo sapiens, UniProt Q08881); test: Kinase inhibition assay (33P transfer), Itk; conditions: read-out: Itk-1
T6 construct: Kinases are expressed as either kinase domains or full length constructs; made in house
T6 sequence (Q08881 1-620): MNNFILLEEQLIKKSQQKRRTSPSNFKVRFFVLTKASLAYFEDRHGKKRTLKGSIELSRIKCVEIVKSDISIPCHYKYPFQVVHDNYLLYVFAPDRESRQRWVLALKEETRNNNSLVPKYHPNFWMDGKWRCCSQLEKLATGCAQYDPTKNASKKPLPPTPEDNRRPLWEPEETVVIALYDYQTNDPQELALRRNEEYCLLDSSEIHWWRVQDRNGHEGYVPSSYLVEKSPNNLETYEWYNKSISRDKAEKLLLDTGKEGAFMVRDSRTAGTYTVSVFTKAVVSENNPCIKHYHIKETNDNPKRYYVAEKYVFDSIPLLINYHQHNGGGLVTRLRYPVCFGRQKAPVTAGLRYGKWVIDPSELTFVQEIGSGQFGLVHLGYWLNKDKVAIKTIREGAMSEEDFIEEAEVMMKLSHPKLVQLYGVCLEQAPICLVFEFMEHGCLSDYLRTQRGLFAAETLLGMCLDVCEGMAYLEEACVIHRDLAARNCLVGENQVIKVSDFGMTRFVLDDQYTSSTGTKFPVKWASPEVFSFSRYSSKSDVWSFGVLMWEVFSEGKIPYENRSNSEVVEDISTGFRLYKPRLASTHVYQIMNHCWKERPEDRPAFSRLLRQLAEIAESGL
Procedure, shortened: as §1

[7] = molecular target: T7, EGFR (Homo sapiens, UniProt P00533); test: Kinase inhibition assay (33P transfer), EGFR; conditions: Table 2, kinase inhibition class; read-out: EGFR-1
T7 construct: Kinases are expressed as either kinase domains or full length constructs; made in house
Procedure, shortened: as §1

[8] = molecular target: T8, Src (Homo sapiens, UniProt P12931); test: Kinase inhibition assay (33P transfer), Src; conditions: Table 6, Src-1 kinase inhibition class
T8 construct: Kinases are expressed as either kinase domains or full length constructs; made in house
Procedure, shortened: as §1

[9] = molecular target: T9, Fyn (Homo sapiens, UniProt P06241); test: Kinase inhibition assay (33P transfer), Fyn; conditions: read-out: Fyn-1
T9 construct: Kinases are expressed as either kinase domains or full length constructs; made in house
Procedure, shortened: as §1

[10] = molecular target: T10, AKT (Homo sapiens, UniProt Q9Y243); test: Kinase inhibition assay (33P transfer), AKT; conditions: Table 2, kinase inhibition class; read-out: AKT3-1
T10 construct: Kinases are expressed as either kinase domains or full length constructs; made in house
Procedure, shortened: as §2

[11] = molecular target: T11, FGFR1 (Homo sapiens, UniProt P11362); test: Kinase inhibition assay (33P transfer), FGFR1; conditions: read-out: FGFR1-1
T11 construct: Kinases are expressed as either kinase domains or full length constructs; made in house

[12] = molecular target: T12, Flt-1 (Homo sapiens, UniProt P17948); test: Kinase inhibition assay (33P transfer), Flt-1
T12 construct: Kinases are expressed as either kinase domains or full length constructs; made in house
Procedure, shortened: as §1

[13] = molecular target: T13, Tek (Homo sapiens, UniProt Q02763); test: Kinase inhibition assay (33P transfer), Tek; conditions: read-out: Tek-1
T13 construct: Kinases are expressed as either kinase domains or full length constructs; made in house
Procedure, shortened: as §1

[14] = molecular target: T14, IGFR-1 (Homo sapiens, UniProt P08069); test: Kinase inhibition assay, IGFR-1 (Table 2); conditions: Table 2, kinase inhibition class
T14 construct: Kinases are expressed as either kinase domains or full length constructs; made in house

[15] = molecular target: T15, Lyn (Homo sapiens, UniProt P07948); test: Kinase inhibition assay (33P transfer), Lyn; conditions: Table 6, Lyn-1 kinase inhibition class
T15 construct: Kinases are expressed as either kinase domains or full length constructs; made in house
Procedure, shortened: as §1

[16] = molecular target: T16, Zap-70 (Homo sapiens, UniProt P43403); test: Kinase inhibition assay (33P transfer), Zap-70; conditions: read-out: Zap-1
T16 construct: Kinases are expressed as either kinase domains or full length constructs; made in house
T16 sequence (P43403 1-619): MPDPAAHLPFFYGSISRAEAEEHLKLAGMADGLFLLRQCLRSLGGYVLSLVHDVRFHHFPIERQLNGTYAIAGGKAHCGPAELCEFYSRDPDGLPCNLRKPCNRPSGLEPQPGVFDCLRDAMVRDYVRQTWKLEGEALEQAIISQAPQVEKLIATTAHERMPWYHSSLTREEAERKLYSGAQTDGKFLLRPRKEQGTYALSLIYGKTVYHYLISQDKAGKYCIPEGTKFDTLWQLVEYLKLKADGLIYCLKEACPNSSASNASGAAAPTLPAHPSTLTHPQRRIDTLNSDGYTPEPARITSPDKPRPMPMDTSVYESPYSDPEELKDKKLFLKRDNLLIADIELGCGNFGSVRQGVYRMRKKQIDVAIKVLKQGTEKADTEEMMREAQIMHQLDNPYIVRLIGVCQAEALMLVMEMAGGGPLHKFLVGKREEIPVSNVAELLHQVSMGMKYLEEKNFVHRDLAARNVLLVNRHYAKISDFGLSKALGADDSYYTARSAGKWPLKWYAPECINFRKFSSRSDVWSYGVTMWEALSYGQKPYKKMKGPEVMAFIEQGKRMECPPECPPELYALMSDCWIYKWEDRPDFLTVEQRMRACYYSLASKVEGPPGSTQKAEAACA
Procedure, shortened: as §2

[17] = molecular target: T17, ErbB4 (Homo sapiens, UniProt Q15303); test: Kinase inhibition assay (33P transfer), ErbB4; conditions: read-out: ErbB4-1
T17 construct: Kinases are expressed as either kinase domains or full length constructs; made in house

[18] = molecular target: T18, PDGFRB (Homo sapiens, UniProt P09619); test: Kinase inhibition assay (33P transfer), PDGFRB; conditions: read-out: PDGFRB-1
T18 construct: Kinases are expressed as either kinase domains or full length constructs; made in house

[19] = molecular target: T19, Kdr (Homo sapiens, UniProt P35968); test: Kinase inhibition assay (33P transfer), Kdr; conditions: read-out: KDR-1
T19 construct: Kinases are expressed as either kinase domains or full length constructs; made in house
Procedure, shortened: as §2

T17 sequence (Q15303 26-1308, species assumed): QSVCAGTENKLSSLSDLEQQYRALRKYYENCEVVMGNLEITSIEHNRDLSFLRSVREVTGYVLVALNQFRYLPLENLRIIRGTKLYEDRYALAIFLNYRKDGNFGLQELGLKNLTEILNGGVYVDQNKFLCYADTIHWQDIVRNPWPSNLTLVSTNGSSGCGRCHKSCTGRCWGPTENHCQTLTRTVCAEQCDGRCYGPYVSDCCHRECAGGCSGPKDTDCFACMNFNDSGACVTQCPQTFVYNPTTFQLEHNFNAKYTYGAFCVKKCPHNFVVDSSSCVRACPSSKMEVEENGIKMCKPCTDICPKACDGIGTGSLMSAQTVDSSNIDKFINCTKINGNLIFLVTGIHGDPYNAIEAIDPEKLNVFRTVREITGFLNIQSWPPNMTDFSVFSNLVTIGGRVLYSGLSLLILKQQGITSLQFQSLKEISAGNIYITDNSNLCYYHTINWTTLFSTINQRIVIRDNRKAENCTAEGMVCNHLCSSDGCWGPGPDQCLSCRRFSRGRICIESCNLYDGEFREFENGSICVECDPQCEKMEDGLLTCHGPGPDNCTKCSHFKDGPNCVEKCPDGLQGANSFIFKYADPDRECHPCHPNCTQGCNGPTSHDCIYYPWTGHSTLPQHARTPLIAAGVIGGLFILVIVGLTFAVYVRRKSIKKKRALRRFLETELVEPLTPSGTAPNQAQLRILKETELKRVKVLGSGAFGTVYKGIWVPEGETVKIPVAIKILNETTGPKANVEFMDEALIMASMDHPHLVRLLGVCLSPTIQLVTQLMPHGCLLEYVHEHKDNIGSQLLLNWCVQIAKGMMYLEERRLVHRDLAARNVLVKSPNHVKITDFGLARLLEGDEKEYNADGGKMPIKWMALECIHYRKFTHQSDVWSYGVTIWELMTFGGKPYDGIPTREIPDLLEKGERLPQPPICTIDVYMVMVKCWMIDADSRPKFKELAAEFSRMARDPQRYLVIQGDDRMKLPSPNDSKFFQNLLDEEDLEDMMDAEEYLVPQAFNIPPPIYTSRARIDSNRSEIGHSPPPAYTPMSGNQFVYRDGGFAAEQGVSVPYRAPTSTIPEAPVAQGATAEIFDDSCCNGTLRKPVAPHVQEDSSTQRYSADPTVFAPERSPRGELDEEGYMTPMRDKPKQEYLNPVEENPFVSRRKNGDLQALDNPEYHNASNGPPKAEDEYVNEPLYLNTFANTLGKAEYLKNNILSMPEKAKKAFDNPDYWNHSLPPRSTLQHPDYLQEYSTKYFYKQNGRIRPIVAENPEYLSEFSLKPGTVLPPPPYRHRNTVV
T2 sequence (P04626 23-1255, species assumed): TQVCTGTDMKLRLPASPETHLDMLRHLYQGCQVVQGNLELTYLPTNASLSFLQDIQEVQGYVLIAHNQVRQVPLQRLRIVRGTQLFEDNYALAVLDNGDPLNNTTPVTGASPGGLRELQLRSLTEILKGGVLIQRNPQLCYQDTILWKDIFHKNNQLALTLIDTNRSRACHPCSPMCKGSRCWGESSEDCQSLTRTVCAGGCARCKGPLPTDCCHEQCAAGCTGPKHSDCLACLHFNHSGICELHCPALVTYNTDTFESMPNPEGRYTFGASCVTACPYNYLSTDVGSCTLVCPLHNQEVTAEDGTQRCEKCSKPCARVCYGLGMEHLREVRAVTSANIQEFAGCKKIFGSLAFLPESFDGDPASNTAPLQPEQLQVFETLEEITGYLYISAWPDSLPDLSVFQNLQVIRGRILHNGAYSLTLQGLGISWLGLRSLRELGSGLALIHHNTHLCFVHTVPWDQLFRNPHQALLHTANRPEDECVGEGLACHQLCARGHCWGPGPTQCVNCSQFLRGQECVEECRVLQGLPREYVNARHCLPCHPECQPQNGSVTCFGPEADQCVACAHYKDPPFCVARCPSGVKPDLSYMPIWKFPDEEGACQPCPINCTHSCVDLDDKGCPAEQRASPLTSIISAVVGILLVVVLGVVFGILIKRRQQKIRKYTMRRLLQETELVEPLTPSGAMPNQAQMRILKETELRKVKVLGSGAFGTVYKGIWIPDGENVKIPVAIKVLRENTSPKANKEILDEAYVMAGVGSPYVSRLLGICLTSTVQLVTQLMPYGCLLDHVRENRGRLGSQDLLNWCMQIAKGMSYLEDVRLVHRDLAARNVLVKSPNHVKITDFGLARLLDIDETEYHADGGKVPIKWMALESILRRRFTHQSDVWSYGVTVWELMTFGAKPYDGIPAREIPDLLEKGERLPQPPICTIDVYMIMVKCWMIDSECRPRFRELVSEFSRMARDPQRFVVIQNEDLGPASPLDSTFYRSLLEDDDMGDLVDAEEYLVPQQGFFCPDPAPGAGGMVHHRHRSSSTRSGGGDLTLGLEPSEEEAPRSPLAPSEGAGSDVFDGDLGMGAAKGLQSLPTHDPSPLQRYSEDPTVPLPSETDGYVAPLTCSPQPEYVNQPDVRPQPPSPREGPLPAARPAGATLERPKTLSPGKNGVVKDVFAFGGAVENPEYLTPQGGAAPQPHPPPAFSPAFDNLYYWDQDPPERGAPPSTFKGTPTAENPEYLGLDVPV
T8 sequence (P12931 whole entry, species assumed, the tested form may be a part): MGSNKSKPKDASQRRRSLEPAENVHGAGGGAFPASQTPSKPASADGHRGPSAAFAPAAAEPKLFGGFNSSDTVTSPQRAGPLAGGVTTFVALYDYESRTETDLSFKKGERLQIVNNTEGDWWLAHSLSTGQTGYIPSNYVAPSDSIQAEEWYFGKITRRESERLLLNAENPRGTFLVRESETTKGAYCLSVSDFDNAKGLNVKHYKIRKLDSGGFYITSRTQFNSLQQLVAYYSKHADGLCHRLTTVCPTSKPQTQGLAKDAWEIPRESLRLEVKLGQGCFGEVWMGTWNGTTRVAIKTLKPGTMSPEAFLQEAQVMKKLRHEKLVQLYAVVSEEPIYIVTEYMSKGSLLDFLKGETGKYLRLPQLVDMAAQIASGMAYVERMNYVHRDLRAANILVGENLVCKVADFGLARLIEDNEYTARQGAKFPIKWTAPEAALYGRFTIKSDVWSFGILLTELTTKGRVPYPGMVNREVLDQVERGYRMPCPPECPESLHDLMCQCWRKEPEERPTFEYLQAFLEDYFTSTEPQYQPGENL
T19 sequence (P35968 20-1356, species assumed): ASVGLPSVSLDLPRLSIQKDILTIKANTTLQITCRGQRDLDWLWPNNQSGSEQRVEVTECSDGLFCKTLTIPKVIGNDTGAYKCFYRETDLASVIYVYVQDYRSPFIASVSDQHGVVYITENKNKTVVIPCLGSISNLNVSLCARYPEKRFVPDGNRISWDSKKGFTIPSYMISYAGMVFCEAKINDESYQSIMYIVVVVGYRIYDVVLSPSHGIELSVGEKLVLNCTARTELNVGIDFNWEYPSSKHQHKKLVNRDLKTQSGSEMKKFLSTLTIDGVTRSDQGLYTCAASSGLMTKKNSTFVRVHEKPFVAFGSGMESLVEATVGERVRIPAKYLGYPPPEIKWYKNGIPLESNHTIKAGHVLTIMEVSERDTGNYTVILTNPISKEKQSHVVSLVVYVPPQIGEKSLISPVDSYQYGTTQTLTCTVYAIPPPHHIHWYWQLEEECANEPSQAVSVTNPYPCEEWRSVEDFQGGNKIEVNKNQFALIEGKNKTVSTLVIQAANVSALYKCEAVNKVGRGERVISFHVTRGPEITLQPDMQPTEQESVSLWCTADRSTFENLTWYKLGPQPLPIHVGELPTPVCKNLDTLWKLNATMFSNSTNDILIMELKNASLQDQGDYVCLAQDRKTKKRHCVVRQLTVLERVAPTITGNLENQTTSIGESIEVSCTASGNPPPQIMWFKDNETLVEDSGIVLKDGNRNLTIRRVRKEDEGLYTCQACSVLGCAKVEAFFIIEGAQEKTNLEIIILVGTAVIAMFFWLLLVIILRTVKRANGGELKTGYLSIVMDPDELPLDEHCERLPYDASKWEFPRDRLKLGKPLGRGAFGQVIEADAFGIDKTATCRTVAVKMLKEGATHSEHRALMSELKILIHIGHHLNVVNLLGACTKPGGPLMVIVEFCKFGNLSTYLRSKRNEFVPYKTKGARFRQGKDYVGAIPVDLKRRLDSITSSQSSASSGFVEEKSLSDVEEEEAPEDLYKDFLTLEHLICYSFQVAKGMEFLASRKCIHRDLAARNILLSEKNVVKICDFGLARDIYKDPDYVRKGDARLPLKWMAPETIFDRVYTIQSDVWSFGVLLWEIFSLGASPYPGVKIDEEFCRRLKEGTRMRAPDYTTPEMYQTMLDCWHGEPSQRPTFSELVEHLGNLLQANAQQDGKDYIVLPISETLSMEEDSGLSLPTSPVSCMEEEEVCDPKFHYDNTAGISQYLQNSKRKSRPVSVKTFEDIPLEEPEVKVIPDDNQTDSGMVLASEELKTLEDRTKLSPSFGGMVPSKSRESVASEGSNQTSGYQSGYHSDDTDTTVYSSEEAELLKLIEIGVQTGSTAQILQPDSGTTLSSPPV
T1 sequence (P08631 whole entry, the tested form may be a part): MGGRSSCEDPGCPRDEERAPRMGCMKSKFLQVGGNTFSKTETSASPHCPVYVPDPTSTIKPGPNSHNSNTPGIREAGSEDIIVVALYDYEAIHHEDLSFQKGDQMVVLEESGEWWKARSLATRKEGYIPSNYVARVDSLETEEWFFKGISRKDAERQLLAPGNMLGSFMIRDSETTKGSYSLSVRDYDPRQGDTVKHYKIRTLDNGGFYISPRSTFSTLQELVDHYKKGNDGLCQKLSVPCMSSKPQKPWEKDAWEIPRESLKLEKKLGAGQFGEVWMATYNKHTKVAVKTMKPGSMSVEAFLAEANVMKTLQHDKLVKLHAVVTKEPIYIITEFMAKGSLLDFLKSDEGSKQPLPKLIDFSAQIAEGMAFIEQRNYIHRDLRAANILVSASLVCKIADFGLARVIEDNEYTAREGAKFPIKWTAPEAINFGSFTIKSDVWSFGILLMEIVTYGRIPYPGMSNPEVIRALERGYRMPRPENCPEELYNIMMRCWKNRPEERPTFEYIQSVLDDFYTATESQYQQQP

Compound	IC50 [1]	IC50 [2]	IC50 [3]	IC50 [4]	IC50 [5]	IC50 [6]	IC50 [7]	IC50 [8]	IC50 [9]	IC50 [10]	IC50 [11]	IC50 [12]	IC50 [13]	IC50 [14]	IC50 [15]	IC50 [16]	IC50 [17]	IC50 [18]	IC50 [19]
COc1cc(Nc2ncnc(Nc3ccc(Br)c4ccccc34)n2)cc(OC)c1OC [Compound 613]	> 9.33 µM	< 0.829 µM	0.829 to 4.98 µM	0.829 to 4.98 µM	> 9.33 µM	> 9.33 µM	0.829 to 4.98 µM	> 9.33 µM	> 9.33 µM	> 9.33 µM	0.829 to 4.98 µM	> 9.33 µM	> 9.33 µM	7.26 to 9.33 µM	4.98 to 7.26 µM	> 9.33 µM	0.829 to 4.98 µM	< 0.829 µM	4.98 to 7.26 µM
COc1cc(Nc2ncnc(-n3c(NCc4ccc(F)cc4)nc4ccccc43)n2)cc(OC)c1OC [Compound 514]	> 8.97 µM	> 8.97 µM	< 0.798 µM	> 8.97 µM	> 8.97 µM	> 8.97 µM	> 8.97 µM	> 8.97 µM	> 8.97 µM	> 8.97 µM	< 0.798 µM	< 0.798 µM	> 8.97 µM	> 8.97 µM	> 8.97 µM	> 8.97 µM	> 8.97 µM	< 0.798 µM	< 0.798 µM

Other lines, results leading:

IC50 [1]	IC50 [2]	IC50 [3]	IC50 [4]	IC50 [5]	IC50 [6]	IC50 [7]	IC50 [8]	IC50 [9]	IC50 [10]	IC50 [11]	IC50 [12]	IC50 [13]	IC50 [14]	IC50 [15]	IC50 [16]	IC50 [17]	IC50 [18]	IC50 [19]	Compound
> 8.69 µM	> 8.69 µM	< 0.772 µM	0.772 to 4.63 µM	> 8.69 µM	> 8.69 µM	> 8.69 µM	> 8.69 µM	> 8.69 µM	> 8.69 µM	0.772 to 4.63 µM	0.772 to 4.63 µM	6.76 to 8.69 µM	> 8.69 µM	0.772 to 4.63 µM	4.63 to 6.76 µM	6.76 to 8.69 µM	< 0.772 µM	< 0.772 µM	COc1cc(Nc2ncnc(-n3c(NCc4ccccc4Cl)nc4ccccc43)n2)cc(OC)c1OC [Compound 943]
> 8 µM	> 8 µM	0.711 to 4.27 µM	0.711 to 4.27 µM	6.22 to 8 µM	> 8 µM	6.22 to 8 µM	> 8 µM	> 8 µM	> 8 µM	< 0.711 µM	0.711 to 4.27 µM	> 8 µM	4.27 to 6.22 µM	< 0.711 µM	> 8 µM	> 8 µM	< 0.711 µM	0.711 to 4.27 µM	COc1cc(Nc2ncnc(-n3c(NCc4cccc(Br)c4)nc4ccccc43)n2)cc(OC)c1OC [Compound 946]
> 7.71 µM	> 7.71 µM	< 0.685 µM	0.685 to 4.11 µM	> 7.71 µM	> 7.71 µM	> 7.71 µM	> 7.71 µM	> 7.71 µM	> 7.71 µM	< 0.685 µM	0.685 to 4.11 µM	> 7.71 µM	0.685 to 4.11 µM	6 to 7.71 µM	> 7.71 µM	> 7.71 µM	< 0.685 µM	< 0.685 µM	COc1cc(Nc2ncnc(-n3c(NCc4ccccn4)nc4ccccc43)n2)cc(OC)c1OCCN1CCOCC1 [Compound 519]
